Assay results reported in patent US20080103205A1, “Pesticidal compositions and methods of use” (priority 2006, published 2008).
Where two headings read alike, the source gives them in different places.

Key:
[1] = system: European corn borer (Ostrinia nubilalis); assay: Diet surface test on European corn borer larvae (2nd instar); format: in vivo; settings: for No. dead: 10 larvae
Description: Concentrations of 6.25, 12.5, 25, or 50 ppm AT blocker were prepared in 95% ethyl alcohol (EtOH). 95% EtOH alone served as control. European corn borer (ECB) diet prepared from the powdered diet supplied by French Agricultural Research, Inc. Diet (1-2 ml) was poured into small cups and allowed to cool to room temperature. Test solution (100 ul) was placed onto the diet surface and allowed to evaporate the solvent. Each concentration of chemical had 2 sets of 10 cups each. One late 2nd instar larva was placed in each cup and covered with lid having perforations for aeration. Cups were placed in an incubator for 7 days at 25±1° C. and 70±5% RH. After seven days, the weight of each larva was taken and any mortality was recorded. Then, the surviving larvae were transferred to fresh diet cups holding sufficient diet (5-6 ml) without chemicals and incubated at 25±1° C. and 70±5% RH until pupation. Weights of larvae were taken 14 days after transferring to fresh diet (21 days after start of treatment). Finally, the number of days until pupation was recorded.
Anion transporters caused larval death and a reduction in weight gain within 7 days exposure. The effect persisted for 2 weeks time on untreated diet, but total time to pupation was relatively unaffected.

[2] = system: Meloidogyne incognita; assay: Toxicity test, J2 juveniles of Meloidogyne incognita, 96 well micro plate; format: in vivo; settings: Meloidogyne incognita
Description: Methodology: Toxicity tests were conducted using J2 juveniles of Meloidogyne incognita adult Caenorhabditis elegans collected from nematode-infested tomato plant roots and culture Petri plates, respectively. Test concentrations of 50, 100, 200, 300, or 400 ppm were prepared in 0.2% dimethylsulfoxide (DMSO) in tap water. Aliquots (300 microliters (ul)) were applied to a 96 well micro plate and a 20 ul aqueous solution containing nematodes was added. The number of nematodes in 20 ul ranged from 17 to 30. Micro plates were sealed with Parafilm™ and incubated at room temperature. Similar tests conducted with 0.2% DMSO in tap water served as controls. Nematode mortality was checked at 24, 48, 72, 120, and 168 hr after incubation. Nematodes that were motionless for 30 sec when observed under a stereomicroscope were considered paralyzed and included in mortality counts. Each concentration was replicated five times and mean percent mortality was calculated after correcting for control mortality using Abbott's formula.
Data Analysis: Mortality data were analyzed using PROC PROBIT (SAS) program and LC50 values were estimated.

[3] = 24 h, read-out: Corrected Mortality (%)
[4] = 48 h, read-out: Corrected Mortality (%)
[5] = 72 h, read-out: Corrected Mortality (%)
[6] = 120 h, read-out: Corrected Mortality (%)
[7] = 168 h, read-out: Corrected Mortality (%)

O=C(O)c1cc([N+](=O)[O-])ccc1NCCCc1ccccc1 [NPPB, 5-Nitro-2-(3-phenylpropylamino)benzoic acid]
No. dead ([1]; 6.25 ppm, 7 days after feeding): 0 | No. dead ([1]; 6.25 ppm, 21 days after feeding): 0 | No. dead ([1]; 12.5 ppm, 7 days after feeding): 0 | No. dead ([1]; 12.5 ppm, 21 days after feeding): 0 | No. dead ([1]; 25 ppm, 21 days after feeding): 2 | Days for pupation ([1]; 50 ppm): 0 days | No. dead ([1]; 50 ppm, 7 days after feeding): 8 | % wt reduction to control ([1]; 50 ppm, 21 days after feeding): 0% | Mean wt of survived larvae, mg ([1]; 50 ppm, 21 days after feeding): 0 mg | No. dead ([1]; 50 ppm, 21 days after feeding): 10 | mortality at 6.25 ppm ([1]; Ostrinia nubilalis, 168 h, 6.25 ppm, 7 days after feeding): 0% | mortality at 12.5 ppm ([1]; Ostrinia nubilalis, 168 h, 12.5 ppm, 7 days after feeding): 0% | mortality at 50 ppm ([1]; Ostrinia nubilalis, 168 h, 50 ppm, 7 days after feeding): 80% | mortality at 6.25 ppm ([1]; Ostrinia nubilalis, 504 h, 6.25 ppm, 21 days after feeding): 0% | mortality at 12.5 ppm ([1]; Ostrinia nubilalis, 504 h, 12.5 ppm, 21 days after feeding): 0% | mortality at 25 ppm ([1]; Ostrinia nubilalis, 504 h, 25 ppm, 21 days after feeding): 20% | mortality at 50 ppm ([1]; Ostrinia nubilalis, 504 h, 50 ppm, 21 days after feeding): 100% | mortality at 50 ppm ([2]; 24 h): 12% | mortality at 100 ppm ([2]; 24 h): 14% | mortality at 200 ppm ([2]; 24 h): 18% | mortality at 300 ppm ([2]; 24 h): 20% | mortality at 400 ppm ([2]; 24 h): 27% | mortality at 50 ppm [2, 3]: 8% | mortality at 100 ppm [2, 3]: 10% | mortality at 200 ppm [2, 3]: 15% | mortality at 300 ppm [2, 3]: 17% | mortality at 400 ppm [2, 3]: 24% | mortality at 50 ppm ([2]; 48 h): 22% | mortality at 100 ppm ([2]; 48 h): 32% | mortality at 200 ppm ([2]; 48 h): 41% | mortality at 300 ppm ([2]; 48 h): 43% | mortality at 400 ppm ([2]; 48 h): 56% | mortality at 50 ppm [2, 4]: 17% | mortality at 100 ppm [2, 4]: 28% | mortality at 200 ppm [2, 4]: 37% | mortality at 300 ppm [2, 4]: 39% | mortality at 400 ppm [2, 4]: 53% | mortality at 50 ppm ([2]; 72 h): 40% | mortality at 100 ppm ([2]; 72 h): 51% | mortality at 200 ppm ([2]; 72 h): 66% | mortality at 300 ppm ([2]; 72 h): 73% | mortality at 400 ppm ([2]; 72 h): 82% | mortality at 50 ppm [2, 5]: 33% | mortality at 100 ppm [2, 5]: 45% | mortality at 200 ppm [2, 5]: 62% | mortality at 300 ppm [2, 5]: 70% | mortality at 400 ppm [2, 5]: 80% | mortality at 50 ppm ([2]; 120 h): 62% | mortality at 100 ppm ([2]; 120 h): 73% | mortality at 200 ppm ([2]; 120 h): 90% | mortality at 300 ppm ([2]; 120 h): 97% | mortality at 400 ppm ([2]; 120 h): 100% | mortality at 50 ppm [2, 6]: 56% | mortality at 100 ppm [2, 6]: 69% | mortality at 200 ppm [2, 6]: 89% | mortality at 300 ppm [2, 6]: 97% | mortality at 400 ppm [2, 6]: 100% | mortality at 50 ppm ([2]; 168 h): 89% | mortality at 100 ppm ([2]; 168 h): 93% | mortality at 200 ppm ([2]; 168 h): 99% | mortality at 300 ppm ([2]; 168 h): 100% | mortality at 400 ppm ([2]; 168 h): 100% | mortality at 50 ppm [2, 7]: 87% | mortality at 100 ppm [2, 7]: 92% | mortality at 200 ppm [2, 7]: 99% | mortality at 300 ppm [2, 7]: 100% | mortality at 400 ppm [2, 7]: 100%
